Patent publication US20140113912A1, “TREATMENT AND MANAGEMENT OF CNS DISORDERS” (priority 2011, published 2014)
“Also recorded” adds a separate entry of the source.

Legend:
[1] = tested on: patient diagnosed schizophrenia; assay: PANSS scoring, 6-week double-blind treatment; format: in vivo, human; conditions: 6 weeks; treatment responders only; lurasidone 40 mg/d, olanzapine 15 mg/d, placebo; FIG. 1
Protocol: Positive and Negative Syndrome Scale (PANSS) was measured according to the procedures well-established in the art. Clinical interviews were conducted by qualified trained professionals. A patient diagnosed schizophrenia was rated from 1 to 7 on 30 different symptoms based in the interview. The 30 symptoms assessed were: (1) positive symptoms, i.e., delusions, conceptual disorganization, hallucinations, hyperactivity, grandiosity, suspiciousness/persecution and hostility; (2) negative symptoms, i.e., blunted affect, emotional withdrawal, poor rapport, passive/apathetic social withdrawal, difficulty in abstract thinking, lack of spontaneity and flow of conversation and stereotyped thinking; and (3) general psychopathology symptoms, i.e., somatic concern, anxiety, guilt feelings, tension, mannerism and posturing, depression, motor retardation, uncooperativeness, unusual thought content, disorientation, poor attention, lack of judgment and insight, disturbance of volition, poor impulse control, preoccupation and active social avoidance. […]
Prior to the baseline visit, subjects underwent a 3-7 day washout of their current antipsychotic medication and randomized to receive either lurasidone (40 mg per day), olanzapine (15 mg per day) or placebo for 6 weeks. Symptom improvement was assessed by the change in PANSS score (total and subscale scores) from baseline to study endpoint. […]

glutamate = assay: Metabolomic analysis of plasma samples: glutamate level; format: in vivo, human
Source text: (§1) Blood samples were taken at 4 days and 6 weeks following treatment. Plasma samples were isolated from whole blood and used for global metabolomic profiling.
(§2) At the time of analysis, samples were thawed and extracts prepared according to a standard protocol, which is designed to remove protein, dislodge small molecules bound to protein or physically trapped in the precipitated protein matrix, and recover a wide range of chemically diverse metabolites. A separate aliquot of each experimental plasma sample was taken then pooled for the creation of “Client Matrix” (CMTRX) samples. These CMTRX samples were injected throughout the platform run and served as technical replicates, allowing variability in the quantitation of all consistently detected biochemicals to be determined and overall process variability and platform performance to be monitored. Extracts of all experimental and CMTRX samples were split for analysis on the GC/MS and LC/MS/MS platforms.
(§3) The CMTRX technical replicate samples were treated independently throughout the process as if they were study samples. All process samples (CMTRX, GROBs—a mixture of organic components used to assess GC column performance, process blanks, etc.) were spaced evenly among the injections for each day and all client samples were randomly distributed throughout each day's run. Data were collected over eight platform run days and thus, ‘block normalized’ by calculating the median values for each run-day block for each individual compound. […] Missing values (if any) were assumed to be below the level of detection for that biochemical with the instrumentation used and were imputed with the observed minimum for that particular biochemical.
A number of internal standards were added to each experimental and process standard sample just prior to injection into the mass spectrometers. A measure of the platform variability was determined by calculating the median relative standard deviation (RSD) for these internal standards. […] Because these standards were added to the samples immediately prior to injection into the instrument, this value reflects instrument variation. In addition, the median relative standard deviation (RSD) for the biochemicals that were consistently measured in the CMTRX represents the total variability within the process for the actual experimental samples and the variability in quantitation of the endogenous metabolites within these samples (Table 2).
Biochemical data were analyzed by ANOVA contrasts and a Two-way ANOVA.
(§4) Statistical analyses of the data were performed on natural log-transformed data to reduce the effect of any potential outliers in the data. T-test comparisons were calculated using the one or both of the statistical software analysis programs: Array Studio (Omicsoft, Inc) or ‘R’ from the Free Software Foundation, Inc.
(§5) For t-test comparisons, within each group: placebo, lurasidone and olanzapine, the early versus the late time point was compared (i.e., 4 days versus 6 weeks). In addition, both lurasidone and olanzapine were compared with placebo at the appropriate time point and then lurasidone was compared with olanzapine at both 4 days and 6 weeks.

732 biochemicals = assay: Global metabolomic profiling: number of biochemicals significantly changed; format: in vivo, human; conditions: Day 42; for number of biochemicals significantly decreased / number of biochemicals significantly increased: of 732 biochemicals; for share of biochemicals significantly changed / number of biochemicals whose serum levels were significantly changed: of a total of 732 biochemicals; for number of biochemicals whose serum levels were significantly changed: p≦0.05
Source text: as §1, §2, §3
Two parameters are typically evaluated when considering statistical significance, namely the p-value and the q-value. […] The q-value describes the false discovery rate; a low q-value (q≦0.10) is an indication of high confidence in a result. Because of the multiple testing occurring in the data sets produced by metabolomic studies, data is often evaluated for false positives.
as §4, §5

glycine = assay: Metabolomic analysis: glycine level; parameters: species or system human; conditions: in vivo
Source text: as §1, §2
(§6) The CMTRX technical replicate samples were treated independently throughout the process as if they were study samples. All process samples (CMTRX, GROBs—a mixture of organic components used to assess GC column performance, process blanks, etc.) were spaced evenly among the injections for each day and all client samples were randomly distributed throughout each day's run. […]

serine = assay: Metabolomic analysis: serine level; parameters: species or system human; conditions: in vivo
Source text: as §1, §2, §6

aspartate = assay: Metabolomic analysis: aspartate level; parameters: species or system human; conditions: in vivo
Source text: as §1, §2, §6

dopamine D2 = dopamine D2 (Homo sapiens, UniProt P14416); conditions: reported; cited from earlier work
Sequence of dopamine D2 (P14416 whole entry): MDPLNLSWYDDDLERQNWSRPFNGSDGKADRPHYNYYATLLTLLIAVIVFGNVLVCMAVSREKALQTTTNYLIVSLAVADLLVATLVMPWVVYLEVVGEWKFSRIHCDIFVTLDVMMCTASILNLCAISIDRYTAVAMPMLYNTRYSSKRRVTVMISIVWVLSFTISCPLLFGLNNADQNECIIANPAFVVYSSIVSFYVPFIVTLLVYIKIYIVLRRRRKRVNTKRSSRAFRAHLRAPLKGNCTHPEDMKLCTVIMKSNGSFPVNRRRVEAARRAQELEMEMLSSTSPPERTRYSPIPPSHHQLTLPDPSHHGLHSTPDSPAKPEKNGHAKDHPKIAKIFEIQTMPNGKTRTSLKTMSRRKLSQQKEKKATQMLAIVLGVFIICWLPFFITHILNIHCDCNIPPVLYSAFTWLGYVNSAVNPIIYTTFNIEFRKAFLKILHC

serotonin 5-HT1A = molecular target: T1, serotonin 5-HT1A (Homo sapiens, UniProt P08908); conditions: reported; cited from earlier work
T1 sequence (P08908 1-422): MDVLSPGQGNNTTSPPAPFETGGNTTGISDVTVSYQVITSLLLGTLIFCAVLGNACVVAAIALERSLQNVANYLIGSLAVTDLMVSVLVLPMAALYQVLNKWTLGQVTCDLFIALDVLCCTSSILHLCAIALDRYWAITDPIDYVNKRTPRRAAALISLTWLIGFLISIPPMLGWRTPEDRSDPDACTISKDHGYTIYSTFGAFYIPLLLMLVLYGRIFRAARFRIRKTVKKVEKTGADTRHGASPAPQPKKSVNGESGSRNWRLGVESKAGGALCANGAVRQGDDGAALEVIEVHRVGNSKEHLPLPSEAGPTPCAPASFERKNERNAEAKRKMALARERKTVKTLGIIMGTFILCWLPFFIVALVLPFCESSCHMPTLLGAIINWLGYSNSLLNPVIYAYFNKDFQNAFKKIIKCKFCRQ

5-HT2A = 5-HT2A (Homo sapiens, UniProt P28223); conditions: reported; cited from earlier work
Sequence of 5-HT2A (P28223 whole entry, species assumed): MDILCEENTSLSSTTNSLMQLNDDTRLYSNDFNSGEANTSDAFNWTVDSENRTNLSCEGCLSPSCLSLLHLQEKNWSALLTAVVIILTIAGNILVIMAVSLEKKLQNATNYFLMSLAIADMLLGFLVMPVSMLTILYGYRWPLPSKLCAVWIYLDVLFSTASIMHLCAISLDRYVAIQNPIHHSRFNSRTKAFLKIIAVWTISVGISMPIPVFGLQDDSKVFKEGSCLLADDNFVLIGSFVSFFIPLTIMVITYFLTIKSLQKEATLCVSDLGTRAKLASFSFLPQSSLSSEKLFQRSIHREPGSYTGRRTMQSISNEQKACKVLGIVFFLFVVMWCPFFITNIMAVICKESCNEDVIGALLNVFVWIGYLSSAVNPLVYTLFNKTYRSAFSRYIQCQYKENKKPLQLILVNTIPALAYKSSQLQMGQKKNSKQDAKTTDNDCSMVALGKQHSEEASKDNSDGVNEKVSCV

5-HT7 = 5-HT7 (Homo sapiens, UniProt P34969); conditions: reported; cited from earlier work
Sequence of 5-HT7 (P34969 whole entry, species assumed): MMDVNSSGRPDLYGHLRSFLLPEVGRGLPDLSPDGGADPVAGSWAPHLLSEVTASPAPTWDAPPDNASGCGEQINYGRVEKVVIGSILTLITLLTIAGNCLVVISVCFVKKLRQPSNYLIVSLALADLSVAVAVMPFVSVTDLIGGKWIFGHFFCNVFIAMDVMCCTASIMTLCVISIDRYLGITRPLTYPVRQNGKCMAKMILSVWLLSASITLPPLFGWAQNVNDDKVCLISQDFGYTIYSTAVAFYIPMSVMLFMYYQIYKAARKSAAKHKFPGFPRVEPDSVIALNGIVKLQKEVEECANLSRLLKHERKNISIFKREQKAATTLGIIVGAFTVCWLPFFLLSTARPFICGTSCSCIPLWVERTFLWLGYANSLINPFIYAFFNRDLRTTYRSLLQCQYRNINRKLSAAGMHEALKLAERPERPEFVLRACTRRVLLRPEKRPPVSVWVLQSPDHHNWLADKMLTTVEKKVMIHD

[2] = molecular target: T2, noradrenaline α2C receptors (Homo sapiens, UniProt P18825); conditions: reported; cited from earlier work
T2 sequence (P18825 1-462): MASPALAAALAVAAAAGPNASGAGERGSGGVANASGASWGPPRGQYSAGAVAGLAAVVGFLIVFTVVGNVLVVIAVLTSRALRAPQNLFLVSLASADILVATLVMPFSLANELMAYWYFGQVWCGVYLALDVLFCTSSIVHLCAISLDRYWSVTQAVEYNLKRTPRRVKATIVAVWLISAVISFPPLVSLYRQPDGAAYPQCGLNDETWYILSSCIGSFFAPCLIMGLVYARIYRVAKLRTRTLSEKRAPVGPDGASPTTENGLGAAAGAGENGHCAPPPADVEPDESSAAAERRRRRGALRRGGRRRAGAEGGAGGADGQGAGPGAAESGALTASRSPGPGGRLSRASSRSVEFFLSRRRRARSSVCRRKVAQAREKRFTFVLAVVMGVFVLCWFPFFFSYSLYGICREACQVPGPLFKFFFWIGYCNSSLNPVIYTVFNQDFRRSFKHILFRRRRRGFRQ

histamine H1 = histamine H1 (Homo sapiens, UniProt P35367); conditions: reported; cited from earlier work
Sequence of histamine H1 (P35367 whole entry): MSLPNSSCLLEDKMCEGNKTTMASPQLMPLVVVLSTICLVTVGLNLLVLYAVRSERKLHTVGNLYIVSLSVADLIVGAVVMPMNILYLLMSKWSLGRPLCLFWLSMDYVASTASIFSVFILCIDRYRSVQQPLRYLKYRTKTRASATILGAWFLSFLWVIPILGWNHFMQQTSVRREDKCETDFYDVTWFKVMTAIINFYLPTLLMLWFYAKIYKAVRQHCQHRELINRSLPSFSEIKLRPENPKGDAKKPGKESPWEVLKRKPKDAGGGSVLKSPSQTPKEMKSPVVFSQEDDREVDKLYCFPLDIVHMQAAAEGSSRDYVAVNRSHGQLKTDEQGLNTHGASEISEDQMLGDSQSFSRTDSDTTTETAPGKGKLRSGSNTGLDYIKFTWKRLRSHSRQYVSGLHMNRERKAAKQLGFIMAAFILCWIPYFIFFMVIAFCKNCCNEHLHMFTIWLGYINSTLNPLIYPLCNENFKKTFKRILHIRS

muscarinic M1 receptors = molecular target: T3, muscarinic M1 receptors (Homo sapiens, UniProt P11229); conditions: reported; cited from earlier work
T3 sequence (P11229 1-460): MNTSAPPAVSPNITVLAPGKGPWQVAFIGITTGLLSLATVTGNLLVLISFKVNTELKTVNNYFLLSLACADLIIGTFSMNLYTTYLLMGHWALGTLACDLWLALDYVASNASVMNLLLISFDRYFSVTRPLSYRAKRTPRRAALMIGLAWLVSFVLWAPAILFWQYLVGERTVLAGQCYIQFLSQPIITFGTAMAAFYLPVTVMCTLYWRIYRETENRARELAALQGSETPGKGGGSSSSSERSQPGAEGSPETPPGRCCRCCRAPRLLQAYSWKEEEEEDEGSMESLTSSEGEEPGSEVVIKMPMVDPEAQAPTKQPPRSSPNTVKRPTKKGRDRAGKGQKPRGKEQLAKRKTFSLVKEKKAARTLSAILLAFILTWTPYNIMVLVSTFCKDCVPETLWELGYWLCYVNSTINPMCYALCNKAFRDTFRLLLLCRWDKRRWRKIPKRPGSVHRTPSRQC

[3] = tested on: positive and negative symptoms of schizophrenia; conditions: several placebo-controlled trials; cited from earlier work
[4] = Total Sample of treatment responders, lurasidone 40 mg/d, olanzapine 15 mg/d, plasma
[5] = subgroup PANSS Negative Change at Week 6 ≦median change score
[6] = subgroup PANSS Positive Change at Week 6 >median change score
[7] = subgroup PANSS Positive Change at Week 6 ≦median change score
[8] = subgroup PANSS Total Change at Week 6 >median change score
[9] = subgroup PANSS Total Change at Week 6 ≦median change score

Structure (SMILES)	Glutamate Levels at Week 6, mean (SD) (glutamate; [4])	Glutamate Levels at Week 6, mean (SD) (glutamate; [5])	Glutamate Levels at Week 6, mean (SD) (glutamate; [6])	Glutamate Levels at Week 6, mean (SD) (glutamate; [7])	Glutamate Levels at Week 6, mean (SD) (glutamate; [8])	Glutamate Levels at Week 6, mean (SD) (glutamate; [9])	number of biochemicals significantly decreased (732 biochemicals)	number of biochemicals significantly increased (732 biochemicals)	share of biochemicals significantly changed (732 biochemicals) [%]	number of biochemicals whose serum levels were significantly changed (732 biochemicals)	also measured
O=C1[C@@H]2[C@H]3CC[C@H](C3)[C@@H]2C(=O)N1C[C@@H]1CCCC[C@H]1CN1CCN(c2nsc3ccccc23)CC1 [Lurasidone]	1.12 (0.34)	1.00 (0.28)	1.14 (0.41)	1.09 (0.23)	1.13 (0.38)	1.09 (0.27)	14	11	3	25	improvement in PANSS total, positive and negative subscores across treatment groups [1]: comparable; overall glutamate level compared with the placebo group (glutamate; days 4 and weeks 6, treatment responders, FIG. 2): significantly greater; glutamate level in responders with high improvement in negative symptoms compared with other responder groups (glutamate; week 6, PANSS negative change above median, FIG. 3): significantly higher increase; also recorded: significantly higher than all other responder groups; relation between levels of glutamate and change in PANSS negative subscore (glutamate; week 6, scatterplot FIG. 4): proportional; level of glycine upon treatment (glycine): increased; level of serine upon treatment (serine): increased; level of aspartate upon treatment (aspartate): increased; affinity for dopamine D2 (dopamine D2): high affinity; affinity for serotonin 5-HT1A (serotonin 5-HT1A): high affinity; also recorded: moderate affinity; affinity for 5-HT2A (5-HT2A): high affinity; affinity for 5-HT7 (5-HT7): high affinity; affinity for noradrenaline α2C receptors [2]: high affinity; affinity for histamine H1 (histamine H1): minimal to no affinity; affinity for muscarinic M1 receptors (muscarinic M1 receptors): minimal to no affinity; ameliorating the positive and negative symptoms of schizophrenia [3]: effective
Cc1cc2c(s1)Nc1ccccc1N=C2N1CCN(C)CC1 [Olanzapine, olanzapine]	1.00 (0.24)	1.03 (0.23)	1.02 (0.27)	0.98 (0.22)	1.01 (0.27)	0.99 (0.26)	46	54	14	100	Glutamate Levels at Week 6, mean (SD) (glutamate; subgroup PANSS Negative Change at Week 6 >median change score, *lurasidone vs. olanzapine P = 0.014, vs placebo P = 0.025): 0.97 (0.26)
